# Read-outs that look alike come from different tables or passages of the source.
# B1: ciliary neurotrophic factor (protein, UniProt P26441 1-200, looked up)
# Ciliary neurotrophic factor: MAFTEHSPLTPHRRDLCSRSIWLARKIRSDLTALTESYVKHQGLNKNINLDSADGMPVASTDQWSELTEAERLQENLQAYRTFHVLLARLLEDQQVHFTPTEGDFHQAIHTLLLQVAAFAYQIEELMILLEYKIPRNEADGMPINVGDGGLFEKKLWGLKVLQELSQWTVRSIHDLRFISSHQTGIPARGSHYIANNKKM
# notes: Human recombinant ciliary neurotrophic factor, 20 ng/ml
# B2: WNT3A: Wnt ligand used at 100 ng/ml to activate Wnt signaling in iPSC-ECs (protein, UniProt P56704 19-352, looked up)
# Protein Wnt-3a: SYPIWWSLAVGPQYSSLGSQPILCASIPGLVPKQLRFCRNYVEIMPSVAEGIKIGIQECQHQFRGRRWNCTTVHDSLAIFGPVLDKATRESAFVHAIASAGVAFAVTRSCAEGTAAICGCSSRHQGSPGKGWKWGGCSEDIEFGGMVSREFADARENRPDARSAMNRHNNEAGRQAIASHMHLKCKCHGLSGSCEVKTCWWSQPDFRAIGDFLKDKYDSASEMVVEKHRESRGWVETLRPRYTYFKVPTERDLVYYEASPNFCEPNPETGSFGTRDRTCNVSSHGIDGCDLLCCGRGHNARAERRREKCRCVFHWCCYVSCQECTRVYDVHTCK
# Columns and labels:
# iPSC-ECs [1] = assay: mRNA levels of brain EC genes in iPSC-ECs with HDAC inhibitor, Wnt pathway activator and PKC activator; type: cell-based, human; conditions: 48 hours, presence and absence of quisinostat 10 nM, Chir99021 5 uM, WNT3A 100 ng/ml, IndoV 100 nM, PMA 100 nM, FIG. 5C
# Protocol: FIGS. 5A-5C show overexpression of brain EC-specific transcription factors and inhibition of HDAC induce a subset of brain EC-enriched genes. […] Chir99021, 5 uM; WNT3A, 100 ng/ml; IndoV, 100 nM; PMA, 100 nM, Q, quisinostate 10 nM; 48 hours. *, P<0.05 vs. Control; **, P<0.01 vs. Control.
# iPSC-ECs [2] = conditions: 10 uM for 2 days, FIG. 4A, 4C
# Protocol: Representative immunostaining images of iPSC-ECs after treatment with TGFBR1 inhibitor RepSox (10 uM, FIG. 4A) and human recombinant TGF beta (FIG. 4B). […] All compounds were treated at 10 uM concentrations for 2 days. […] Scale bars, 100 um.
# iPSC-ECs [3] = assay: Brain EC gene regulation in iPSC-ECs exposed to a combination of WNT3A, CNTF and RepSox; type: cell-based, human; conditions: FIG. 4D
# iPSC-ECs [4] = assay: GLUT1 and PLVAP expression in iPSC-ECs after Wnt signaling activation (immunostaining, mRNA); type: cell-based, human; conditions: vs. EGM2, FIG. 2A-2C
# Excerpt: CTNNB1::GFP iPSC line (Allen Cell, AICS-0058-067iPSC) was used to visualize subcellular localization of beta-catenin protein. *, P<0.05 vs. EGM2; **, P<0.01 vs. EGM2. Scale bars, 100 um.
# iPSC-ECs [5] = assay: CLDN5 expression in CNTF-treated iPSC-ECs (immunostaining); type: cell-based, human; conditions: CNTF 20 ng/ml, CNTFRa 100 ng/ml, FIG. 3
# Protocol: FIG. 3A illustrates iPSC-ECs exposed to either fresh astrocyte medium (AM) or astrocyte-conditioned medium (ACM). Conditioned medium was collected for 48 hours. Both AM and ACM were treated as 1:1 mixture with EC medium (EGM2). […] Human recombinant ciliary neurotrophic factor (CNTF), 20 ng/ml; human recombinant CNTF receptor alpha (CNTFRa), 100 ng/ml. […] PM and PCM were treated as 1:1 mixture with EGM2 for 2 days. […] Scale bars, 100 um.
Molecule,expression of ABCB1 (mRNA) (iPSC-ECs [1]),expression of MFSD2A (mRNA) (iPSC-ECs [1]),CLDN5 expression (iPSC-ECs [2]),effect on brain EC gene regulation (iPSC-ECs [3]),GLUT1 expression (iPSC-ECs [4]),PLVAP expression (iPSC-ECs [4]),CLDN5 expression (iPSC-ECs [5])
CC(C)[C@H]1C(=O)N[C@H](CO)Cc2c[nH]c3cccc(c23)N1C [IndoV],induce,induce,,,,,
Cc1cccc(-c2[nH]ncc2-c2ccc3ncccc3n2)n1 [RepSox],,,increase,additive effect,,,
Cc1c[nH]c(-c2cnc(NCCNc3ccc(C#N)cn3)nc2-c2ccc(Cl)cc2Cl)n1 [Chir99021],induce,induce,,,upregulates,downregulates,
CCCCCCCCCCCCCC(=O)O[C@@H]1[C@@H](C)[C@@]2(O)[C@@H](C=C(CO)C[C@]3(O)C(=O)C(C)=C[C@@H]23)[C@@H]2C(C)(C)[C@]12OC(C)=O [PMA],induce,induce,,,,,
B1,,,,additive effect,,,increases
B2,induce,induce,,additive effect,upregulates,downregulates,
